Experimental data: ChEMBL document CHEMBL1145624, “The isolation, structure determination and cytotoxicity of the new fungal metabolite, trichodermamide C” (Bioorg Med Chem Lett, 2008)
≈ marks a conversion by molar mass, not a printed value.

Assays:
A549 = assay: Cytotoxicity against human A549 cells after 24 hrs; format: functional, cell-based; conditions: A549, 24 h
HCT-116 = assay: Cytotoxicity against human HCT116 cells after 24 hrs; format: functional, cell-based; conditions: HCT-116, 24 h

Structure (SMILES): COc1ccc2cc(N(C)C(=O)C3=NO[C@H]4[C@H](O)C=C[C@@H](O)[C@@]4(O)C3)c(=O)oc2c1OC [TRICHODERMAMIDE C]
- IC50 (A549): 4.28 µg/mL (≈ 9.59 µM)
- IC50 (HCT-116): 0.68 µg/mL (≈ 1.52 µM)
